Legend:
Assay type in all cases: in vivo
[1] = tested on: Beet Armyworm (Spodoptera exigua, LAPHEG); experiment: Bioassay on Beet Armyworm (BAW), 128-well diet tray assay; conditions: 168 h, 50 μg/cm^2 on artificial diet, second instar larvae, five to seven days, 25° C., read-out: BAW % Control (or Mortality) rating
Procedure, shortened: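 Artificial diet was surface-treated with 50 μg/cm^2 of compound in 90:10 acetone-water and dried; one to five second-instar larvae were placed per well, eight wells per treatment. Held at 25 °C, 14:10 light-dark, for five to seven days, then percent mortality per well was averaged.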

[2] = tested on: Cabbage Looper (Trichoplusia ni, TRIPNI); experiment: Bioassay on Cabbage Looper (CL), 128-well diet tray assay; conditions: 168 h, 50 μg/cm^2 on artificial diet, second instar larvae, five to seven days, 25° C., read-out: CL % Control (or Mortality) rating
Procedure, shortened: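 Diet-tray assay: 1–5 second-instar larvae per well on artificial diet surface-treated with 50 μg/cm^2 compound (90:10 acetone-water, dried), eight wells per compound. Held at 25° C., 14:10 light-dark for five to seven days; percent mortality per well averaged across the eight wells.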

[3] = tested on: Yellow Fever Mosquito (Aedes aegypti, AEDSAE); conditions: about 1 day-old larvae, 3 days, room temperature, scored on mortality
Description: Example C: Bioassays on Yellow Fever Mosqurro (Aedes aegypti, AEDSAE) (“YFM”)
Certain molecules disclosed in this document were tested against YFM using procedures described in the following paragraph. In the reporting of the results, the “GPA & YFM Rating Table” was used (See Table Section).
Master plates containing 400 μg of a molecule dissolved in 100 μL of dimethyl sulfoxide (DMSO) (equivalent to a 4000 ppm solution) are used. A master plate of assembled molecules contains 15 μL per well. To this plate, 135 μL of a 90:10 water:acetone mixture is added to each well. A robot (Biomek® NXP Laboratory Automation Workstation) is programmed to dispense 15 μL aspirations from the master plate into an empty 96-well shallow plate (“daughter” plate). There are 6 reps (“daughter” plates) created per master. The created daughter plates are then immediately infested with YFM larvae.
The day before plates are to be treated, mosquito eggs are placed in Millipore water containing liver powder to begin hatching (4 g. into 400 mL). After the daughter plates are created using the robot, they are infested with 220 μL of the liver powder/larval mosquito mixture (about 1 day-old larvae). After plates are infested with mosquito larvae, a non-evaporative lid is used to cover the plate to reduce drying. Plates are held at room temperature for 3 days prior to grading. After 3 days, each well is observed and scored based on mortality. The results are indicated in the table entitled “Table ABC: Biological Results” (See Table Section).

Row | Structure (SMILES) | mortality at 50 µg/cm2 [1] [%] | mortality at 50 µg/cm2 [2] [%] | YFM % Control (or Mortality) rating [3]
1 | C[C@H](CSCC(F)(F)F)NC(=O)c1ccc(/C(F)=C/C(c2ccc(F)c(C(F)(F)F)c2)C(F)(F)F)cc1C(F)(F)F (stereo partly drawn) [F102, 4-((Z)-1,4,4,4-Tetrafluoro-3-(4-fluoro-3-(trifluoromethyl)phenyl)but-1-en-1-yl)-N—((R)-1-((2,2,2-trifluoroethyl)thio)propan-2-yl)-2-(trifluoromethyl)benzamide] | 50 to 100 | 50 to 100 | A (80-100)
2 | CCS(=O)(=O)C[C@@H](C)NC(=O)c1ccc(/C(F)=C/C(c2cc(Cl)cc(Cl)c2)C(F)(F)F)cc1C(F)(F)F (stereo partly drawn) [F45, 4-((Z)-3-(3,5-Dichlorophenyl)-1,4,4,4-tetrafluorobut-1-en-1-yl)-N—((R)-1-(ethylsulfonyl)propan-2-yl)-2-(trifluoromethyl)benzamide] | 50 to 100 | 50 to 100 | A (80-100)
3 | Cc1cc(C(/C=C(\F)c2ccc(C(=O)N[C@H](C)CS(=O)(=O)CC(F)(F)F)c(C(F)(F)F)c2)C(F)(F)F)cc(Cl)c1Cl (stereo partly drawn) [F78, 4-((Z)-3-(3,4-Dichloro-5-methylphenyl)-1,4,4,4-tetrafluorobut-1-en-1-yl)-N—((R)-1-((2,2,2-trifluoroethyl)sulfonyl)propan-2-yl)-2-(trifluoromethyl)benzamide] | 50 to 100 | 50 to 100 | B (More than 0-Less than 80)
4 | C[C@H](CS(=O)(=O)CC(F)(F)F)NC(=O)c1ccc(/C(F)=C/C(c2cc(Cl)c(Cl)c(Cl)c2)C(F)F)cc1C(F)(F)F (stereo partly drawn) [F98, 4-((Z)-1,4,4-Trifluoro-3-(3,4,5-trichlorophenyl)but-1-en-1-yl)-N—((R)-1-((2,2,2-trifluoroethyl)sulfonyl)propan-2-yl)-2-(trifluoromethyl)benzamide] | 50 to 100 | 50 to 100 | A (80-100)
5 | C[C@H](C[S+]([O-])CC(F)(F)F)NC(=O)c1ccc(/C(F)=C/C(c2cc(Cl)cc(Cl)c2)C(F)(F)F)cc1C(F)(F)F (stereo partly drawn) [F27, 4-((Z)-3-(3,5-Dichlorophenyl)-1,4,4,4-tetrafluorobut-1-en-1-yl)-N-((2R)-1-((2,2,2-trifluoroethyl)sulfinyl)propan-2-yl)-2-(trifluoromethyl)benzamide] | 50 to 100 | 50 to 100 | A (80-100)
6 | CCS(=O)(=O)C[C@@H](C)NC(=O)c1ccc(/C(F)=C/C(c2cc(Br)c(Cl)c(Br)c2)C(F)(F)F)cc1C(F)(F)F (stereo partly drawn) [F55, 4-((Z)-3-(3,5-Dibromo-4-chlorophenyl)-1,4,4,4-tetrafluorobut-1-en-1-yl)-N—((R)-1-(ethylsulfonyl)propan-2-yl)-2-(trifluoromethyl)benzamide] | 50 to 100 | 50 to 100 | A (80-100)
7 | C=Cc1c(Cl)cc(C(/C=C(\F)c2ccc(C(=O)N[C@H](C)CS(=O)(=O)CC(F)(F)F)c(C(F)(F)F)c2)C(F)(F)F)cc1Cl (stereo partly drawn) [F33, 4-((Z)-3-(3,5-Dichloro-4-vinylphenyl)-1,4,4,4-tetrafluorobut-1-en-1-yl)-N—((R)-1-((2,2,2-trifluoroethyl)sulfonyl)propan-2-yl)-2-(trifluoromethyl)benzamide] | 50 to 100 | 50 to 100 | A (80-100)
8 | C[C@H](CS(=O)(=O)CC(F)(F)F)NC(=O)c1ccc(/C(F)=C/C(c2cc(Cl)c(Br)c(Cl)c2)C(F)(F)F)cc1C(F)(F)F (stereo partly drawn) [F25, 4-((Z)-3-(4-Bromo-3,5-dichlorophenyl)-1,4,4,4-tetrafluorobut-1-en-1-yl)-N—((R)-1-((2,2,2-trifluoroethyl)sulfonyl)propan-2-yl)-2-(trifluoromethyl)benzamide] | 50 to 100 | 50 to 100 | A (80-100)
9 | C[C@H](CS(=O)(=O)CC(F)(F)F)NC(=O)c1ccc(/C(F)=C/C(c2ccc(C(F)(F)F)c(Cl)c2)C(F)(F)F)cc1C(F)(F)F (stereo partly drawn) [F91] | 50 to 100 | 50 to 100 | D (No activity noticed in this bioassay)
10 | C[C@H](CS(=O)(=O)CC(F)(F)F)NC(=O)c1ccc(/C(F)=C/C(c2ccc(C(F)(F)F)c(Br)c2)C(F)(F)F)cc1C(F)(F)F (stereo partly drawn) [F95, 4-((Z)-3-(3-Bromo-4-(trifluoromethyl)phenyl)-1,4,4,4-tetrafluorobut-1-en-1-yl)-N—((R)-1-((2,2,2-trifluoroethyl)sulfonyl)propan-2-yl)-2-(trifluoromethyl)benzamide] | 50 to 100 | 50 to 100 | A (80-100)
11 | Cc1cc(C(/C=C(\F)c2ccc(C(=O)N[C@H](C)CSCC(F)(F)F)c(C(F)(F)F)c2)C(F)(F)F)cc(C)c1Cl (stereo partly drawn) [F52, 4-((Z)-3-(4-Chloro-3,5-dimethylphenyl)-1,4,4,4-tetrafluorobut-1-en-1-yl)-N—((R)-1-((2,2,2-trifluoroethyl)thio)propan-2-yl)-2-(trifluoromethyl)benzamide] | 50 to 100 | 50 to 100 | D (No activity noticed in this bioassay)
12 | C=Cc1c(Cl)cc(C(/C=C(\F)c2ccc(C(=O)N[C@H](C)CS(=O)(=O)CC)c(C(F)(F)F)c2)C(F)(F)F)cc1Cl (stereo partly drawn) [F119, 4-((Z)-3-(3,5-Dichloro-4-vinylphenyl)-1,4,4,4-tetrafluorobut-1-en-1-yl)-N—((R)-1-(ethylsulfonyl)propan-2-yl)-2-(trifluoromethyl)benzamide] | 50 to 100 | 50 to 100 | A (80-100)
13 | C[C@H](CS(=O)(=O)CC(F)(F)F)NC(=O)c1ccc(/C(F)=C/C(c2ccc(Br)c(Br)c2)C(F)(F)F)cc1C(F)(F)F (stereo partly drawn) [F54, 4-((Z)-3-(3,4-Dibromophenyl)-1,4,4,4-tetrafluorobut-1-en-1-yl)-N—((R)-1-((2,2,2-trifluoroethyl)sulfonyl)propan-2-yl)-2-(trifluoromethyl)benzamide] | 50 to 100 | 50 to 100 | A (80-100)
14 | CCC(F)(F)c1cc(Cl)cc(C(/C=C(\F)c2ccc(C(=O)N[C@H](C)CS(=O)(=O)CC(F)(F)F)c(C(F)(F)F)c2)C(F)(F)F)c1 (stereo partly drawn) [F131, 4-((Z)-3-(3-Chloro-5-(1,1-difluoropropyl)phenyl)-1,4,4,4-tetrafluorobut-1-en-1-yl)-N—((R)-1-((2,2,2-trifluoroethyl)sulfonyl)propan-2-yl)-2-(trifluoromethyl)benzamide] | 50 to 100 | 50 to 100 | A (80-100)
15 | CCc1ccc(C(/C=C(\F)c2ccc(C(=O)N[C@H](C)CS(=O)(=O)CC(F)(F)F)c(C(F)(F)F)c2)C(F)(F)F)cc1Cl (stereo partly drawn) [F141, 4-((Z)-3-(3-Chloro-4-ethylphenyl)-1,4,4,4-tetrafluorobut-1-en-1-yl)-N—((R)-1-((2,2,2-trifluoroethyl)sulfonyl)propan-2-yl)-2-(trifluoromethyl)benzamide] | 50 to 100 | 50 to 100 | D (No activity noticed in this bioassay)
